Reference: PubChem BioAssay AID248 (DTP/NCI, 2004)
Several values for one entry are separate records, joined by “and”; a condition that tells them apart may be missing. Equal entries are not always repeated. Inconclusive results and toxic doses are left out. Cut-off read from the data, not from the text of the source: active = T/C of 150% or more; inactive = T/C below 125%.

Test system: L1210 leukemia ip in BDF1 mice, survival T/C
Test: NCI In Vivo Anticancer Drug Screen. Data for tumor model L1210 Leukemia (intraperitoneal) in B6D2F1 (BDF1) mice
Details: endpoint: mean survival time, higher = longer survival
Method in brief: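 Mice bearing the transplanted tumor received compound or vehicle. Survival of the treated group was divided by that of the vehicle-treated control group to give the ratio.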

[1] = dose: 25.0 mg/kg/injection, schedule: Q01DX009 (ip), vehicle: Klucel (hydroxypropylcellulose) (HPC)
[2] = dose: 50.0 mg/kg/injection, schedule: Q01DX009 (ip), vehicle: Klucel (hydroxypropylcellulose) (HPC)
[3] = dose: 100.0 mg/kg/injection, schedule: Q01DX001 (ip), vehicle: saline
[4] = dose: 100.0 mg/kg/injection, schedule: Q01DX009 (ip), vehicle: Klucel (hydroxypropylcellulose) (HPC)
[5] = dose: 200.0 mg/kg/injection, schedule: Q01DX001 (ip), vehicle: saline
[6] = dose: 200.0 mg/kg/injection, schedule: Q01DX009 (ip), vehicle: Klucel (hydroxypropylcellulose) (HPC)
[7] = dose: 400.0 mg/kg/injection, schedule: Q01DX001 (ip), vehicle: saline
[8] = dose: 100.0 mg/kg/injection, schedule: Q01DX009 (ip), vehicle: saline
[9] = dose: 100.0 mg/kg/injection, schedule: Q04DX003 (ip), vehicle: saline
[10] = dose: 200.0 mg/kg/injection, schedule: Q01DX009 (ip), vehicle: saline

Measured: T/C

CN=C(c1ccc(NC(=O)c2cc(C(=O)Nc3ccc(C(=NC)N(C)C)cc3)cc([N+](=O)[O-])c2)cc1)N(C)C
inactive: dose: 1.88 mg/kg/injection, schedule: Q01DX Z (ip), vehicle: saline 100 % of control | dose: 3.75 mg/kg/injection, schedule: Q01DX Z (ip), vehicle: saline 100 % of control | dose: 7.5 mg/kg/injection, schedule: Q01DX Z (ip), vehicle: saline 98 % of control

CC1=Nc2ccccc2/C1=C\c1c(C)[nH]c2ccccc12
inactive: [1] 97 % of control | [2] 97 % of control | dose: 50.0 mg/kg/injection, schedule: Q01DX009 (ip), vehicle: acetone 101 % of control | [3] 96 % of control | [4] 97 % of control | dose: 100.0 mg/kg/injection, schedule: Q04DX003 (ip), vehicle: acetone 96 % of control | [5] 101 % of control | [6] 97 % of control | dose: 200.0 mg/kg/injection, schedule: Q04DX003 (ip), vehicle: acetone 99 % of control | [7] 104 % of control

CS(=O)(=O)OCC#CCOS(C)(=O)=O
inactive: dose: 8.0 mg/kg/injection, schedule: Q01DX Z (ip), vehicle: saline 100 % of control | dose: 16.0 mg/kg/injection, schedule: Q01DX Z (ip), vehicle: saline 109 % of control | dose: 32.0 mg/kg/injection, schedule: Q01DX Z (ip), vehicle: saline 105 % of control | dose: 64.0 mg/kg/injection, schedule: Q01DX Z (ip), vehicle: saline 117 % of control

CC(=O)OCC(=O)C12OC1CC1C3CCC4CC(=O)CCC4(C)C3CC(=O)C12C (stereo unspecified)
inactive: dose: 100.0 mg/kg/injection, schedule: Q01DX001 (ip), vehicle: other 89 % of control | dose: 200.0 mg/kg/injection, schedule: Q01DX001 (ip), vehicle: other 90 % of control | dose: 400.0 mg/kg/injection, schedule: Q01DX001 (ip), vehicle: other 97 % of control

CCC(CO)NC1CCCCC1 (stereo unspecified)
inactive: dose: 75.0 mg/kg/injection, schedule: Q01DX001 (ip), vehicle: carboxymethylcellulose (CMC) 88 % of control

O=[N+]([O-])c1ccc(-[n+]2ccccc2)c([N+](=O)[O-])c1
inactive: dose: 18.75 mg/kg/injection, schedule: Q01DX009 (ip), vehicle: saline 105 % of control | dose: 25.0 mg/kg/injection, schedule: Q01DX009 (ip), vehicle: saline 105 % of control | dose: 37.5 mg/kg/injection, schedule: Q01DX009 (ip), vehicle: saline 103 % of control | dose: 50.0 mg/kg/injection, schedule: Q01DX009 (ip), vehicle: saline 103 % of control | dose: 75.0 mg/kg/injection, schedule: Q01DX009 (ip), vehicle: saline 102 % of control | [8] 102 % of control | dose: 150.0 mg/kg/injection, schedule: Q01DX009 (ip), vehicle: saline 112 % of control

O=C1C(Br)=C(c2ccccc2)C(=O)C(Br)=C1c1ccccc1
inactive: dose: 100.0 mg/kg/injection, schedule: Q01DX001 (ip), vehicle: carboxymethylcellulose (CMC) 90 % of control | dose: 200.0 mg/kg/injection, schedule: Q01DX001 (ip), vehicle: carboxymethylcellulose (CMC) 92 % of control | dose: 400.0 mg/kg/injection, schedule: Q01DX001 (ip), vehicle: carboxymethylcellulose (CMC) 97 % of control

S=C(Sc1nc2ccccc2s1)Sc1nc2ccccc2s1
inactive: dose: 100.0 mg/kg/injection, schedule: Q04DX002 (ip), vehicle: Klucel (hydroxypropylcellulose) (HPC) 105 % of control | dose: 200.0 mg/kg/injection, schedule: Q04DX002 (ip), vehicle: Klucel (hydroxypropylcellulose) (HPC) 94 % of control | dose: 400.0 mg/kg/injection, schedule: Q04DX002 (ip), vehicle: Klucel (hydroxypropylcellulose) (HPC) 101 % of control

NC(=S)N/N=C/c1ccc2c(c1)OCO2
inactive: dose: 100.0 mg/kg/injection, schedule: Q04DX003 (ip), vehicle: saline with Tween-80 95 % of control | dose: 200.0 mg/kg/injection, schedule: Q04DX003 (ip), vehicle: saline with Tween-80 103 % of control

NC(=S)N/N=C/c1ccc(Cl)cc1
inactive: [1] 103 % of control | [2] 101 % of control

CCOc1ccc(N=Nc2c(O)n(-c3ccccc3C)c(=S)n(-c3ccccc3OC)c2=O)cc1
inactive: dose: 75.0 mg/kg/injection, schedule: Q01DX003 (ip), vehicle: Klucel (hydroxypropylcellulose) (HPC) 91 % of control | dose: 150.0 mg/kg/injection, schedule: Q01DX003 (ip), vehicle: Klucel (hydroxypropylcellulose) (HPC) 94 % of control | dose: 300.0 mg/kg/injection, schedule: Q01DX003 (ip), vehicle: Klucel (hydroxypropylcellulose) (HPC) 91 % of control

CC1CCC(NC(=O)NCCCl)c2ccccc21 (stereo unspecified)
inactive: dose: 20.0 mg/kg/injection, schedule: Q04DX003 (ip), vehicle: Klucel (hydroxypropylcellulose) (HPC) 102 % of control | dose: 40.0 mg/kg/injection, schedule: Q04DX003 (ip), vehicle: Klucel (hydroxypropylcellulose) (HPC) 100 % of control | dose: 80.0 mg/kg/injection, schedule: Q04DX003 (ip), vehicle: Klucel (hydroxypropylcellulose) (HPC) 100 % of control

O=NN(CC(F)(F)F)C(=O)NCC(F)(F)F
inactive: dose: 8.0 mg/kg/injection, schedule: Q01DX001 (ip), vehicle: carboxymethylcellulose (CMC) 113 % of control | dose: 16.0 mg/kg/injection, schedule: Q01DX001 (ip), vehicle: carboxymethylcellulose (CMC) 113 % of control | dose: 31.0 mg/kg/injection, schedule: Q01DX001 (ip), vehicle: carboxymethylcellulose (CMC) 113 % of control | dose: 62.0 mg/kg/injection, schedule: Q01DX001 (ip), vehicle: carboxymethylcellulose (CMC) 113 % of control | dose: 125.0 mg/kg/injection, schedule: Q01DX001 (ip), vehicle: carboxymethylcellulose (CMC) 113 % of control | dose: 187.0 mg/kg/injection, schedule: Q01DX001 (ip), vehicle: carboxymethylcellulose (CMC) 112 % of control | dose: 250.0 mg/kg/injection, schedule: Q01DX001 (ip), vehicle: carboxymethylcellulose (CMC) 107 % of control | dose: 375.0 mg/kg/injection, schedule: Q01DX001 (ip), vehicle: carboxymethylcellulose (CMC) 113 % of control | dose: 500.0 mg/kg/injection, schedule: Q01DX001 (ip), vehicle: carboxymethylcellulose (CMC) 118 % of control

O=C(Nc1cccc(C(F)(F)F)c1)Nc1cccc2ccc(O)cc12
inactive: [4] 107 % of control | [6] 106 % of control | dose: 400.0 mg/kg/injection, schedule: Q01DX009 (ip), vehicle: Klucel (hydroxypropylcellulose) (HPC) 98 % of control

CC(C)CCN
inactive: [3] 115 % of control | [8] 98 % of control and 104 % of control | dose: 100.0 mg/kg/injection, schedule: Q04DX002 (ip), vehicle: saline 102 % of control and 103 % of control | [9] 98 % of control | [5] 112 % of control | [10] 107 % of control and 112 % of control | dose: 200.0 mg/kg/injection, schedule: Q04DX002 (ip), vehicle: saline 103 % of control and 108 % of control | dose: 200.0 mg/kg/injection, schedule: Q04DX003 (ip), vehicle: saline 98 % of control | [7] 107 % of control | dose: 400.0 mg/kg/injection, schedule: Q01DX009 (ip), vehicle: saline 114 % of control and 117 % of control | dose: 400.0 mg/kg/injection, schedule: Q04DX002 (ip), vehicle: saline 101 % of control and 102 % of control | dose: 400.0 mg/kg/injection, schedule: Q04DX003 (ip), vehicle: saline 112 % of control

c1cc[c]([Sn]([c]2ccccc2)([c]2ccccc2)[c]2ccccc2)cc1
inactive: dose: 50.0 mg/kg/injection, schedule: Q01DX009 (ip), vehicle: saline with Tween-80 95 % of control | dose: 100.0 mg/kg/injection, schedule: Q01DX009 (ip), vehicle: saline with Tween-80 90 % of control | dose: 200.0 mg/kg/injection, schedule: Q01DX009 (ip), vehicle: saline with Tween-80 100 % of control

N=C(N)SCc1csc(N)n1
inactive: dose: 25.0 mg/kg/injection, schedule: Q04DX003 (ip), vehicle: saline 119 % of control | dose: 50.0 mg/kg/injection, schedule: Q04DX003 (ip), vehicle: saline 111 % of control | [8] 112 % of control | [9] 100 % of control and 117 % of control | [10] 96 % of control

O=c1ccc2c(ccc3ncccc32)o1
inactive: dose: 50.0 mg/kg/injection, schedule: Q01DX009 (ip), vehicle: carboxymethylcellulose (CMC) 87 % of control | dose: 50.0 mg/kg/injection, schedule: Q04DX003 (ip), vehicle: carboxymethylcellulose (CMC) 117 % of control | dose: 100.0 mg/kg/injection, schedule: Q01DX009 (ip), vehicle: carboxymethylcellulose (CMC) 98 % of control | dose: 100.0 mg/kg/injection, schedule: Q04DX003 (ip), vehicle: carboxymethylcellulose (CMC) 111 % of control | dose: 200.0 mg/kg/injection, schedule: Q04DX003 (ip), vehicle: carboxymethylcellulose (CMC) 93 % of control
